Data set [1] has as its system Hepatitis C virus. The experiment in a line: Inhibition of recombinant HCV 1b NS5B deltac21 RNA polymerase by scintillator counting. The arrangement: species or system Hepatitis C virus subtype 1b.
Data set [2] is described as follows: Inhibition of HCV RNA-dependent RNA polymerase. Also noted: species or system Hepacivirus hominis.
In data set [3] the test system is Hepatitis C virus. Nature of the data set: Antiviral activity against HCV subgenomic replicon harboring NS5B gene transfected in human Huh7 cells. The data set is classed as functional, Hepacivirus hominis. Particulars: Huh-7.
Data set [4] is described as follows: Cytotoxicity against human Huh7 cells. The data set is classed as cell-based, Huh-7.

Where only a bound is given, the exact number is not on record here.

Usually IC50 stands for the concentration that gives 50% inhibition. What is called EC50 is the concentration giving half of the maximal effect. As usually defined, the CC50 is the concentration at which the toxic effect on the cells reaches its halfway point. A lower CC50 goes with harm at low concentration. Take `O=C(O)/C(O)=C/C(=O)c1cccc(NCc2ccccc2)c1`: the 50% inhibitory concentration (IC50) in the data set with Hepatitis C virus [1] was 28 µM; in data set [2], 17 µM. Besides, the EC50 with Hepatitis C virus [3] turned out to be 28 µM. In data set [4], the cytotoxic concentration (CC50) is more than 100 µM.
Take `O=C(O)/C(O)=C/C(=O)c1ccc(OCc2ccccc2)cc1`: in the data set with Hepatitis C virus [1], the IC50 turned out to be 8.3 µM. Besides, the concentration giving a half-maximal response (EC50) in the data set with Hepatitis C virus [3] came out at 0.66 µM. The CC50 in data set [4] is more than 100 µM.
Consider `O=C(O)/C(O)=C/C(=O)c1ccc(OCc2ccc(Cl)cc2)cc1`, for which the half-inhibitory concentration (IC50) in the data set on Hepatitis C virus [1] came to 1.5 µM. Moreover, in the data set on Hepatitis C virus [3], the EC50 worked out at 3.1 µM. This molecule gave a CC50 in data set [4] of more than 100 µM.
For the molecule `O=C(O)/C(O)=C/C(=O)c1cccc(OCc2ccccc2)c1`, the IC50 in the data set on Hepatitis C virus [1] stood at 4.6 µM; in data set [2] it was 8 µM. The molecule further returned an EC50 in the data set with Hepatitis C virus [3] of 30 µM. The molecule further registered a CC50 in data set [4] of more than 100 µM.
Regarding `O=C(O)/C(O)=C/C(=O)c1cccc(OCc2ccc(Cl)cc2)c1`, in the data set on Hepatitis C virus [1], the IC50 amounted to 28 µM. The molecule further came in with a 50% effective concentration (EC50) in the data set on Hepatitis C virus [3] of more than 50 µM. For the same molecule, the 50% cytotoxic concentration (CC50) in data set [4] is more than 100 µM.
In the same order, the values of `O=C(O)/C(O)=C/C(=O)c1ccccc1OCc1ccc(Cl)cc1` are 2 µM, 0.54 µM and more than 100 µM.
The like results for `O=C(O)/C(O)=C/C(=O)c1ccccc1OCc1ccccc1` were, in that order, 30 µM, 40 µM and more than 100 µM.
The like results for `O=C(O)/C(O)=C/C(=O)c1cccc(NCc2ccc(Cl)cc2)c1` were, in that order, 0.96 µM, 0.82 µM and more than 100 µM.

The record behind these values is ChEMBL document CHEMBL1155920, “Effects of the aryl linker and the aromatic substituent on the anti-HCV activities of aryl diketoacid (ADK) analogues” (Bioorg Med Chem Lett, 2008).
